Measurements as given in patent publication US5236918A, “6-aryl-3-cyanaminopyridazines, their preparation and use and medicaments containing them” (BYK Gulden Lomberg Chemische Fabrik GmbH, priority 1989, dated 1993).

Tests used:
[1] = tested on: tracheal ring chain of the guinea-pig; test: bronchospasmolytic action on the tracheal ring chain of the guinea-pig in vitro (relaxation of stable tonic spontaneous contraction); type: cell-based; conditions: for EC50: Cavia porcellus, EC50 in mol/l, 50% of the maximum relaxation achievable with (-)isoprenaline 10^-6 mol/l, spontaneous contraction, 37° C.; for [EC50]theophylline / [EC50]substance: quotient of EC50 values, theophylline = 1
Description: The bronchospasmolytic action of the compounds on the tracheal ring chain of the guinea-pig was tested in vitro as follows: Four parallel tracheal ring chains, each consisting of 6 individual rings, of the guinea-pig (female and male, 430-600 g), in an organ bath [5 ml, Krebs-Henseleit solution with addition of phentolamine (10^-5 mol/l), 37° C., pretension of the organs 2 g, gassing with carbogen] develop a stable, tonic spontaneous contraction after about 20 to 30 minutes. Relaxation can be brought about on these permanently contracted organs under isometric measurement conditions by application of the test substance in a cumulatively semi-logarithmically increasing concentration (e.g. 1×10^-6 +2×10^-6 +7×10^-6 +2×10^-5etc. mol/l), a constant relaxation response being awaited after each individual dose of the test substance before the next higher concentration is applied. A complete dose/effect curve of the test substance is thus obtained over a period of 20 to 30 minutes. The particular relaxation is expressed as the percentage fraction of the maximum relaxation which can be achieved by addition of (-)isoprenaline (10^-6 mol/l).

PDE III = biological target: T1, PDE III (Homo sapiens, UniProt Q14432); test: inhibition of PDE III isolated from human platelets; type: biochemical; conditions: for [IC50]theophylline / [IC50]substance: PDE III, quotient of IC50 values, theophylline = 1; for IC50: human platelets, cAMP 0.5 μmol/l, 37° C., 20 minutes, read-out: -log[IC50] PDE III (converted)
T1 construct: PDE III isolated from human platelets; from tissue; host or cells: human platelets
T1 sequence (Q14432 whole entry): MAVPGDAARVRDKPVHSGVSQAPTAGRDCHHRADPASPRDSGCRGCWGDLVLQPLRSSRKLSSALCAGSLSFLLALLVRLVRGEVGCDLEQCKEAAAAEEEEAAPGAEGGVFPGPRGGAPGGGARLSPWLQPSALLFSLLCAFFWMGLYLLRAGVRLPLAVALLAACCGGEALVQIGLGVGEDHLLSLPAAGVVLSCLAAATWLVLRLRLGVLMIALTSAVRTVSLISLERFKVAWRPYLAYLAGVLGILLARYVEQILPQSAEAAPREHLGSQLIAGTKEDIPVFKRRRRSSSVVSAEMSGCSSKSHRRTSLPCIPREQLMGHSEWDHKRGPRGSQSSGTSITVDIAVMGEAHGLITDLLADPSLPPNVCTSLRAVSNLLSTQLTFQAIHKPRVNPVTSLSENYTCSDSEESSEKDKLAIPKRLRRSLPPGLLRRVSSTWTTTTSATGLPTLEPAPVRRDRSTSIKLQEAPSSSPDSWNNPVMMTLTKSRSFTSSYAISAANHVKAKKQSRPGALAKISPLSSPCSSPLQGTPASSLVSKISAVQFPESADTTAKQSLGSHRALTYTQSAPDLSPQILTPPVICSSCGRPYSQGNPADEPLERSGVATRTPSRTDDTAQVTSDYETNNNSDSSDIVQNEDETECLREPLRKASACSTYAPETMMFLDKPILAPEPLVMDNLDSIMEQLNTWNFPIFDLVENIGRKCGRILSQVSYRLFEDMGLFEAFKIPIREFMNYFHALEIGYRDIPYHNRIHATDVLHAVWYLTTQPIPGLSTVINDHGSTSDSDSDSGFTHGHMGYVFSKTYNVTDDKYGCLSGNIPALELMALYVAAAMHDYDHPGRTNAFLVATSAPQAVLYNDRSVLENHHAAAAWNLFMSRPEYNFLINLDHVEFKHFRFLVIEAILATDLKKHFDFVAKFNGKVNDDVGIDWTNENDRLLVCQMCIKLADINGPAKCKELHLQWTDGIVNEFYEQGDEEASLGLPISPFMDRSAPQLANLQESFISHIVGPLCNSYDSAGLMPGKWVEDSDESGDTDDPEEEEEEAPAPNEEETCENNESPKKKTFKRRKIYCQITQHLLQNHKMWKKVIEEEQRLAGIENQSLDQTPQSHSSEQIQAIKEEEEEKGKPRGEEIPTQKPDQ
Text: (§1) The inhibition of phosphodiesterases of classes III (PDE III=high-affinity cAMP-PDE which can be inhibited by cGMP) and IV (PDE IV=high-affinity cAMP-PDE which cannot be inhibited by cGMP, Rolipram-sensitive) is regarded as being particularly conclusive for a bronchospasmolytic and/or antiinflammatory action which may be expected [H. Hidaka et al., Adv. Cycl. Nucl. Res. 13, 145 (1984); Tips 5, 237 (1984); R. Weishaar et al., J. Med. Chem. 28, 537 (1985); S. A. Harrison et al., Molec. Pharmac. 29, 506 (1986); J. Klein-Tebbe et al., Allergologie 12, 12 (1989); C. Schudt et al., Allergologie 12, 12 (1989)].
(§2) The PDE inhibition of the compounds according to the invention was therefore determined on a PDE III isolated from human platelets and PDE IV isolated from human neutrophilic polymorphonuclear cells (PMNs) and from the canine trachea. The phosphodiesterases III and IV are isolated by chromatography by the method of Polson et al., Biochem. Pharmacol. 31, 3403-3406 (1982).
(§3) The substances are dissolved in DMSO and diluted further. From a series of solutions diluted up to a hundred-fold, 2.1 μl portions are taken and 212 μl reaction mixture are added. The reaction mixture contains Hepes (100 mmol/l), DTE (5 mmol/l), MgCl2 (5 mmol/l), CaCl2 (10 μmol/l), BSA fraction V 0.5 mg/ml, cAMP 0.5 μmol/l, 2,8-^3 H-cAMP 250,000 cpm/ml (0.3 μCi/ml, s.a. 33.5 μCi/mmol) and SV (snake venom) (25 μg/212 μl test batch).
(§4) The reaction is started by addition of 10 μl PDE to the reaction mixture and to the substance batch. The mixtures are then incubated at 37° C. for 20 minutes. The reaction is stopped by heating at 95° C. for 45 seconds. After the samples have cooled, the SV solution is added, the 5-AMP formed being cleaved. After incubation for 30 minutes at 37° C., this reaction is stopped by addition of 1 ml anion exchanger suspension. The cAMP which remains is thereby bonded. The adenosine formed remains in the supernatant after centrifugation and can be measured in an aliquot by the radioactivity contained therein.

PDE IV [2] = test: inhibition of PDE IV from the canine trachea; type: biochemical; conditions: for [IC50]theophylline / [IC50]substance: PDE IV canine trachea, quotient of IC50 values, theophylline = 1; for -log[IC50] PDE IV canine trachea: cAMP 0.5 μmol/l, 37° C., 20 minutes
Text: as §1, §2, §3, §4

PDE IV [3] = test: inhibition of PDE IV from human neutrophilic polymorphonuclear cells (PMNs); type: biochemical; conditions: for [IC50]theophylline / [IC50]substance: PDE IV human PMNs, quotient of IC50 values, theophylline = 1; for -log[IC50] PDE IV PNMs: human neutrophilic polymorphonuclear cells, cAMP 0.5 μmol/l, 37° C., 20 minutes
Text: as §1, §2, §3, §4

[4] = tested on: acetylcholine-induced bronchospasm; test: protective action against acetylcholine-induced bronchospasm on the conscious guinea-pig; type: in vivo; conditions: Cavia porcellus, 0.5 h; verum, oral, 100 μmol/kg, 30 minutes after administration; protected = latency period at least three times; read-out: Number of animals protected/number of animals used (converted)
Description: The bronchospasmolytic action was additionally tested on the model of "Protective action against acetylcholine-induced bronchospasm on the conscious guinea-pig":
Guinea-pigs (250-350 g) are exposed in a closed Plexiglas cylinder (volume 5 l) to an acetylcholine mist (0.06% in 0.9% sodium chloride solution; ultrasonic mister Heyer Use 77) twice before administration of the substance at an interval of 20 minutes, and 30 minutes after administration of the substance. The time from the start of misting to the onset of clear respiratory exertion (under certain circumstances hypoxic convulsions in the lateral position) is measured and defined as the latency period. A prolonging of the latency period after administration of the substance to at least three times the average latency period before administration of the substance is regarded as a protective action, and the number of protected animals in the group is stated. The test substances are administered orally by means of a stomach tube (dose 100 μmol/kg, volume 1 ml/kg, suspending agent 4% Methocel suspension in 0.9% sodium chloride solution).
The test substance is administered perorally by means of a stomach tube (standard dose 100 μmol, volume 1 ml 4% Methocel suspension in 0.9% sodium chloride solution/kg). After 30 minutes, the animals are exposed to the acetylcholine mist again and the latency periods are measured. Prolonging of the latency period to at least three times the length is regarded as a protective action.

For `CCCOc1ccc(-c2ccc(NC#N)nn2)cc1OC` [Compound 1, 3-Cyanamino-6-(3-methoxy-4-n-propoxyphenyl)pyridazine], the EC50 [1] was 5.62 µM and the “[EC50]theophylline / [EC50]substance” value [1] was 24.0.

With `CCOc1cc(-c2ccc(NC#N)nn2)ccc1OC` [Compound 2, 3-Cyanamino-6-(3-ethoxy-4-methoxyphenyl)pyridazine] the EC50 [1] was 3.02 µM, the “[EC50]theophylline / [EC50]substance” value [1] was 44.7 and the “[IC50]theophylline / [IC50]substance” value (PDE III) was 15.5. The IC50 (PDE III) was 10.5 µM, the “[IC50]theophylline / [IC50]substance” value (PDE IV [2]) was 95.6 and the “-log[IC50] PDE IV canine trachea” value (PDE IV [2]) was 5.79.

`COc1cc(-c2ccc(NC#N)nn2)ccc1OCC(C)C` [Compound 5, 3-Cyanamino-6-[3-methoxy-4-(2-methylpropoxy)phenyl]pyridazine] was tested, and the EC50 [1] was 3.55 µM and the “[EC50]theophylline / [EC50]substance” value [1] was 38.1.

`COc1cc(-c2ccc(NC#N)nn2)ccc1OC(C)C` [Compound 6, 3-Cyanamino-6-[3-methoxy-4-(1-methylethoxy)phenyl]pyridazine] was tested, and the EC50 [1] was 8.13 µM, the “[EC50]theophylline / [EC50]substance” value [1] was 16.6 and the “[IC50]theophylline / [IC50]substance” value (PDE III) was 25.7. It also gave an IC50 (PDE III) of 6.31 µM.

`CCOc1ccc(-c2ccc(NC#N)nn2)cc1OC` [Compound 7, 3-Cyanamino-6-(4-ethoxy-3-methoxyphenyl)pyridazine] was tested, and the EC50 [1] was 6.46 µM, the “[EC50]theophylline / [EC50]substance” value [1] was 20.9 and the “[IC50]theophylline / [IC50]substance” value (PDE III) was 18.2. The IC50 (PDE III) was 8.91 µM, the “[IC50]theophylline / [IC50]substance” value (PDE IV [2]) was 32.4 and the “-log[IC50] PDE IV canine trachea” value (PDE IV [2]) was 5.32.

For `COc1cc(-c2ccc(NC#N)nn2)ccc1OC(F)F` [Compound 8, 3-Cyanamino-6-(4-difluoromethoxy-3-methoxyphenyl)pyridazine], the EC50 [1] was 1.86 µM, the “[EC50]theophylline / [EC50]substance” value [1] was 72.5 and the “[IC50]theophylline / [IC50]substance” value (PDE IV [2]) was 70.8. For the same compound, the “-log[IC50] PDE IV canine trachea” value (PDE IV [2]) was 5.66.

`COc1ccc(-c2ccc(NC#N)nn2)cc1OC(F)F` [Compound 9, 3-Cyanamino-6-(3-difluoromethoxy-4-methoxyphenyl)pyridazine] was tested, and the EC50 [1] was 2.34 µM, the “[EC50]theophylline / [EC50]substance” value [1] was 57.6 and the “[IC50]theophylline / [IC50]substance” value (PDE III) was 13.2. For the same compound, the IC50 (PDE III) was 12.3 µM, the “[IC50]theophylline / [IC50]substance” value (PDE IV [2]) was 69.2 and the “-log[IC50] PDE IV canine trachea” value (PDE IV [2]) was 5.65.

In the case of `COc1ccc(-c2ccc(NC#N)nn2)cc1OC` [Compound 10, 3-Cyanamino-6-(3,4-dimethoxyphenyl)pyridazine], the EC50 [1] is reported as 7.08 µM, the “[EC50]theophylline / [EC50]substance” value [1] is reported as 19.1 and the “[IC50]theophylline / [IC50]substance” value (PDE III) is reported as 15.1. The IC50 (PDE III) was 10.7 µM, the “[IC50]theophylline / [IC50]substance” value (PDE IV [2]) was 74.1 and the “-log[IC50] PDE IV canine trachea” value (PDE IV [2]) was 5.68.

With `COc1ccc(-c2ccc(NC#N)nn2)cc1OC1CCCC1` [Compound 11, 3-Cyanamino-6-(3-cyclopentyloxy-4-methoxyphenyl)pyridazine] the EC50 [1] was 0.562 µM, the “[EC50]theophylline / [EC50]substance” value [1] was 240 and the “[IC50]theophylline / [IC50]substance” value (PDE IV [2]) was 120. For the same compound, the “-log[IC50] PDE IV canine trachea” value (PDE IV [2]) was 5.89, the “[IC50]theophylline / [IC50]substance” value (PDE IV [3]) was 288 and the “-log[IC50] PDE IV PNMs” value (PDE IV [3]) was 6.22.

In the case of `CCOc1ccc(-c2ccc(NC#N)nn2)cc1OC(F)F` [Compound 14, 3-Cyanamino-6-(3-difluoromethoxy-4-ethoxyphenyl)pyridazine], the EC50 [1] is reported as 2.04 µM, the “[EC50]theophylline / [EC50]substance” value [1] is reported as 66.1 and the “[IC50]theophylline / [IC50]substance” value (PDE IV [3]) is reported as 85.1. For the same compound, the “-log[IC50] PDE IV PNMs” value (PDE IV [3]) was 5.69.

For `COc1ccc(-c2ccc(NC#N)nn2)cc1OCC1CCC1` [Compound 15, 3-Cyanamino-6-(3-cyclobutylmethoxy-4-methoxyphenyl)pyridazine], the EC50 [1] was 0.912 µM, the “[EC50]theophylline / [EC50]substance” value [1] was 148 and the “[IC50]theophylline / [IC50]substance” value (PDE IV [2]) was 77.7. For the same compound, the “-log[IC50] PDE IV canine trachea” value (PDE IV [2]) was 5.70.

`CC(C)Oc1cc(-c2ccc(NC#N)nn2)ccc1OC(F)F` [Compound 16, 3-Cyanamino-6-[4-difluoromethoxy-3-(1-methylethoxy)phenyl]pyridazine] was tested, and the EC50 [1] was 0.661 µM, the “[EC50]theophylline / [EC50]substance” value [1] was 204 and the responders at 100 µmol/kg [4] was 50%. For the same compound, the “[IC50]theophylline / [IC50]substance” value (PDE IV [3]) was 550 and the “-log[IC50] PDE IV PNMs” value (PDE IV [3]) was 6.50.

`N#CNc1ccc(-c2ccc(OC(F)F)c(OC3CCCC3)c2)nn1` [Compound 17, 3-Cyanamino-6-(3-cyclopentyloxy-4-difluoromethoxyphenyl)pyridazine] was tested, and the EC50 [1] was 0.759 µM, the “[EC50]theophylline / [EC50]substance” value [1] was 178 and the “[IC50]theophylline / [IC50]substance” value (PDE IV [3]) was 513. For the same compound, the “-log[IC50] PDE IV PNMs” value (PDE IV [3]) was 6.47.

With `N#CNc1ccc(-c2ccc(OC(F)F)c(OCC3CC3)c2)nn1` [Compound 18, 3-Cyanamino-6-(3-cyclopropylmethoxy-4-difluoromethoxyphenyl)pyridazine] the EC50 [1] was 0.562 µM, the “[EC50]theophylline / [EC50]substance” value [1] was 240 and the responders at 100 µmol/kg [4] was 50%. The “[IC50]theophylline / [IC50]substance” value (PDE IV [3]) was 759 and the “-log[IC50] PDE IV PNMs” value (PDE IV [3]) was 6.64.

For `CC(C)COc1cc(-c2ccc(NC#N)nn2)ccc1OC(F)F` [Compound 19, 3-Cyanamino-6-[4-difluoromethoxy-3-(2-methylpropoxy)phenyl]pyridazine], the EC50 [1] was 1.41 µM, the “[EC50]theophylline / [EC50]substance” value [1] was 95.6 and the “[IC50]theophylline / [IC50]substance” value (PDE IV [3]) was 525. The “-log[IC50] PDE IV PNMs” value (PDE IV [3]) was 6.48.

`N#CNc1ccc(-c2ccc(OCC3CC3)c(OC(F)F)c2)nn1` [Compound 21, 3-Cyanamino-6-(4-cyclopropylmethoxy-3-difluoromethoxyphenyl)pyridazine] was tested, and the EC50 [1] was 1 µM and the “[EC50]theophylline / [EC50]substance” value [1] was 135.
